What follows are molecules tested against T1, human Y5 receptor (Homo sapiens, UniProt Q15761) (assay: Radioligand binding to membranes, cloned human Y5 receptor). Conditions: Table 1; read-out: Ki (nM) hNPY-5.
T1 construct: expressed in transfected cells; host or cells: mouse fibroblast LM(tk-) cells, e.g. L-hY5-7 (ATCC CRL-11995)
T1 sequence (Q15761 1-445): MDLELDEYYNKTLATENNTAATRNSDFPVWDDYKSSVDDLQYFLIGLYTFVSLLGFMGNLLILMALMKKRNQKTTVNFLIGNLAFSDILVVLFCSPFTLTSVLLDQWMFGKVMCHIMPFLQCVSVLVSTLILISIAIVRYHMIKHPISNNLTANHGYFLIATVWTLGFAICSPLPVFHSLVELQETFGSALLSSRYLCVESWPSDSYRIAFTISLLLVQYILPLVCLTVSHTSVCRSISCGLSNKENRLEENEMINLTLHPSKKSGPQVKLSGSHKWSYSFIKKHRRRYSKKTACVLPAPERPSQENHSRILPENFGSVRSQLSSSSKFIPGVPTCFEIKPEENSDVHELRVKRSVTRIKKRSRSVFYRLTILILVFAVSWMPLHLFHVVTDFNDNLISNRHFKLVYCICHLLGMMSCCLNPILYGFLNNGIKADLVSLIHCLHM

Compound	Ki
COCCNc1nc(NCC2CCC(CNS(=O)(=O)c3cccc4ccccc34)CC2)nc(NC(C)C)n1 (stereo not shown) [Example 12, N1-(4-[(4-(isopropylamino)-6-[(2-methoxyethyl)amino]-1,3,5-triazin-2-ylamino)methyl]cyclohexylmethyl)-1-naphthalenesulfonamide]	18 nM
CC(C)Nc1nc(NCC2CCC(CNS(=O)(=O)c3cccc4ccccc34)CC2)nc(NC(C)C)n1 (stereo not shown) [Example 4, N1-{[4-({[4,6-Di(isopropylamino)-1,3,5-triazin-2-yl]amino}methyl)cyclohexyl]methyl}-1-naphthalenesulfonamide]	23 nM
CC(C)Nc1nc(NCC2CCC(CNS(=O)(=O)c3cccc4ccccc34)CC2)nc(N(C)CCO)n1 (stereo not shown) [Example 26, N1-[4-([4-[(2-hydroxyethyl)(methyl)amino]-6-(isopropylamino)-1,3,5-triazin-2-yl]aminomethyl)cyclohexyl]methyl-1-naphthalenesulfonamide]	86 nM

Same assay, conditions: Table 5; read-out: Ki, nM hNPY-5

Ki	Compound
3.2 nM	COc1ccc(C)cc1S(=O)(=O)NC[C@H]1CC[C@H](Nc2nc(-c3nc(C)sc3C)cs2)CC1 [Example 89, trans-N1-[(4-[4-(2,5-Dimethyl-1,3-thiazol-4-yl)-1,3-thiazol-2-yl]aminocyclohexyl)methyl]-2-methoxy-5-methyl-1-benzenesulfonamide]
4 nM	COc1ccc(C)cc1S(=O)(=O)N[C@H]1CC[C@H](CNc2nc(-c3ccccn3)cs2)CC1 [Example 83, trans-2-(4-(2-Methoxy-5-methylphenyl)sulfonylamino)-cyclohexylmethylamino-4-(2-pyridyl)thiazole dihydrogen chloride]
17.5 nM	CN(C)S(=O)(=O)NC[C@H]1CC[C@H](Nc2nc(-c3nccs3)cs2)CC1 [Example 90, trans-N,N-dimethyl-N′-[(4-[4-(-1,3-thiazol-2-yl)-1,3-thiazol-2-yl]aminocyclohexyl)methyl]sulfamide]

Continued, molecule first:

Compound	Ki
Cc1nc(-c2csc(NCCCCCNS(=O)(=O)c3ccc(F)cc3)n2)c(C)s1 [Example 94, N1-(5-[4-(2,5-Dimethyl-1,3-thiazol-4-yl)-1,3-thiazol-2-yl]aminopentyl)-4-fluoro-1-benzenesulfonamide]	19.5 nM
COc1ccc(C)cc1S(=O)(=O)NCCCCCNc1nc(-c2nc(C)sc2C)cs1 [Example 93, N1-(5-[4-(2,5-Dimethyl-1,3-thiazol-4-yl)-1,3-thiazol-2-yl]aminopentyl)-2-methoxy-5-methyl-1-benzenesulfonamide]	3.6 nM

Same assay, conditions: Table 6; read-out: Ki, nM hNPY-5

Ki	Compound
110 nM	Cc1cccc(F)c1S(=O)(=O)NCCCCNc1nc2c(s1)CCSc1ccccc1-2 [Example 135, N1-[4-(4,5-dihydrobenzo[2,3]thiepino[4,5-d][1,3]thiazol-2-ylamino)butyl]-2-fluoro-6-methyl-1-benzenesulfonamide]
4.4 nM	O=S(=O)(NCCCCCCNc1nc2c(s1)CCSc1ccccc1-2)c1cccc2nsnc12 [Example 112, N4-[6-(4,5-Dihydrobenzo[2,3]thiepino[4,5-d][1,3]thiazol-2-ylamino)hexyl]-2,1,3-benzothiadiazole-4-sulfonamide]
161 nM	CN(C)c1cccc2c(S(=O)(=O)NCCCCCNc3nc4c(s3)CCSc3ccccc3-4)cccc12 [Example 123, N1-[5-(4,5-Dihydrobenzo[2,3]thiepino[4,5-d][1,3]thiazol-2-ylamino)pentyl]-5-(dimethylamino)-1 naphthalenesulfonamide]

Further lines, the molecule ahead of its results:

Compound	Ki
O=S(=O)(NCCCCCCNc1nc2c(s1)CCSc1ccccc1-2)c1cccc2ccccc12 [Example 114, N1-[6-(4,5-Dihydrobenzo[2,3]thiepino[4,5-d][1,3]thiazol-2-ylamino)hexyl]-1-naphthalenesulfonamide]	16.6 nM
O=S(=O)(NC[C@H]1CC[C@H](Nc2nc3c(s2)CCSc2ccccc2-3)CC1)c1cccc2ccccc12 [Example 121, N1-{[4-(4,5-Dihydrobenzo[2,3]thiepino[4,5-d][1,3]thiazol-2-ylamino)cyclohexyl]methyl}-1-naphthalenesulfonamide]	18.4 nM

Reference: US7189720B2 (H. Lundbeck A/S, priority 1999, dated 2007)
